# Experimental data as given in patent US11939352B2, “Potent aromatase inhibitors through fungal transformation of anti-cancer drug testolactone: an approach towards treatment of breast cancer” (priority 2021, dated 2024).
# Target: T1, human placental microsomal aromatase (Homo sapiens, UniProt P11511)
# T1 construct: was determined in a pool of human fresh placental microsomes in vitro; from tissue; host or cells: human placenta (pooled fresh microsomes)
# T1 sequence (P11511 1-503): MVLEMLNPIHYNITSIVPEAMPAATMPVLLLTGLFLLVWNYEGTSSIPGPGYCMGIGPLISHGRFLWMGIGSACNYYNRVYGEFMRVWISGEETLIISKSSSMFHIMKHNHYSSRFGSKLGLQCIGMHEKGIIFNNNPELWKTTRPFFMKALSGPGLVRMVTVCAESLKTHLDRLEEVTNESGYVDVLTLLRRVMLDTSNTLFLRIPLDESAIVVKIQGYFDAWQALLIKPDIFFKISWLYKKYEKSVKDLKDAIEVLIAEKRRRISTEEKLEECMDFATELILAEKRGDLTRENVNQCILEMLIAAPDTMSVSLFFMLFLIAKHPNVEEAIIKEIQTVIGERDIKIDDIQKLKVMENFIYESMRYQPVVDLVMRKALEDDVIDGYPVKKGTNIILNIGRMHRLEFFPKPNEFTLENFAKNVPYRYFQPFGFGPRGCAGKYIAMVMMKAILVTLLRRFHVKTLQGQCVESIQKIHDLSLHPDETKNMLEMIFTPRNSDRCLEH
# Experiment: Human placental aromatase inhibition assay
# Type: biochemical
row,Compound,IC50 [nM]
1,"C[C@]12C=CC(=O)C=C1CC[C@@H]1[C@@H]2CC[C@]2(C)OC(=O)CC[C@@H]12 [Compound 1, 3-oxo-13,17-secoandrosta-1,4-dieno-17,13α-lactone, reference compound]",716 ± 31
2,"C[C@]12C=CC(=O)C[C@H]1C[C@H](O)[C@@H]1[C@@H]2CC[C@]2(C)OC(=O)CC[C@@H]12 [Compound 2, 7β-hydroxy-3-oxo-13,17-seco-5β-androsta-1-eno-17,13α-lactone]",8.63 ± 0.4
3,"C[C@]12CC[C@@H](O)C[C@H]1CC[C@@H]1[C@@H]2[C@@H](O)C[C@]2(C)OC(=O)CC[C@@H]12 [Compound 3, 3α,11β-dihydroxy-13,17-seco-5β-androsta-17,13α-lactone]",9.23 ± 1.3
4,"C[C@]12CC[C@H]3[C@@H](CC[C@]45O[C@H]4[C@@H](O)C=C[C@]35C)[C@@H]1CCC(=O)O2 [Compound 4, 4β,5β-epoxy-3β-hydroxy-13,17-secoandrosta-1-eno-17,13α-lactone]",10400 ± 500
5,"C[C@]12CC[C@H]3[C@@H](CC[C@]45O[C@H]4[C@H](O)C=C[C@]35C)[C@@H]1CCC(=O)O2 [Compound 5, 4β,5β-epoxy-3α-hydroxy-13,17-secoandrosta-1-eno-17,13α-lactone]",820 ± 59
